Earlier results as cited in US9750732B2, “Urinary triaosylceramide (Gb3) as a marker of cardiac disease” (Baylor Research Institute, priority 2009, dated 2017).
Where two headings read alike, the source gives them in different places.

What was measured:
APC: protein S [1] = conditions: purified proteins
APC: protein S [2] = conditions: exogenously added; in the presence but not absence of APC: protein S
[3] = in multicomponent vesicles containing phosphatidylserine and phosphatidylcholine

## galactosylceramide
APC: protein S [1]; [3]
  inactivation of factor Va by APC: protein S: enhanced

## glycosylceramide [GlcCer]
APC: protein S [1]; glycolipid alone
  inactivation of factor Va by APC: protein S: enhanced
APC: protein S [1]; [3]
  inactivation of factor Va by APC: protein S: enhanced
APC: protein S [2]
  clotting times of normal plasma: dose-dependently prolonged clotting times

## lactosylceramide
APC: protein S [1]; [3]
  inactivation of factor Va by APC: protein S: enhanced

## globotriaosylceramide [Gb3Cer]
APC: protein S [1]; [3]
  inactivation of factor Va by APC: protein S: enhanced
APC: protein S [2]
  clotting times of normal plasma: dose-dependently prolonged clotting times
